Test results taken from US6114572A, “Substituted phenols and thiophenols useful as antioxidant agents” (priority 1997, dated 2000).
Where two headings read alike, the source gives them in different places.

Columns and labels:
[1] = system: Cholesterol-Fed Female New Zealand White Rabbits; assay: Serum cholesterol, lipoprotein cholesterol and triglycerides in cholesterol-fed rabbits; assay type: in vivo, New Zealand White rabbit; settings: rabbit serum, 0.4% in diet, 7 days, N = 5, fasted overnight
Experimental: Perform five independent experiments in the following manner. […] Solubilize the MDL compounds in 100% ethanol. Spray the chow with the MDL mixtures and allow to dry overnight in a chemical fume hood. Spray control chow with ethanol. […] On day 7, bleed (~2 mL) rabbits (fasted overnight) from a marginal ear vein. Euthanize rabbits by carbon dioxide overdose. Record the total body and liver weights in grams. Record food as grams·days^-1 ·rabbits^-1. Use aliquots of fresh serum for clinical chemistries, lipoprotein cholesterol determination, thiobarbituric acid reactive substances (TBARS) and compound and metabolite concentrations in serum. Freeze livers (~5 gram aliquots) at -20° C. for compound and metabolite concentration determination at a later time.
Allow blood to clot at room temperature for 30 minutes. Obtain serum after centrifugation for 10 min at 5° C. at 3000 rpm in a Beckman GPKR centrifuge with a GH rotor. […] Calculate cholesterol and triglycerides as mg/dL.
Separate lipoprotein fractions (very low density lipoprotein, VLDL, low density lipoprotein, LDL and high density lipoprotein, HDL) on a Sepharose 6HR column (1×30 cm, Pharmacia) attached to a Waters Powerline HPLC system. Inject serum (50 μL) onto the column and elute with phosphate buffered saline, pH 7.4, at a flow rate of 0.5 mL/min. […] Measure absorbance at 500 nm. The lipoprotein subfractions are quantitated as follows:

[2] = system: oxidation of serum lipids; assay: TBARS assay (oxidation of serum lipids) in cholesterol-fed rabbits; assay type: in vivo, New Zealand White rabbit; settings: rabbit serum, 0.4% in diet, 7 days, N = 5, CuSO4-initiated, 5 hr
Excerpt: Perform five independent experiments in the following manner. Each study has a control group and 1-5 groups treated with MDL compound (N=5 per group). Feed Female New Zealand White rabbits (Hazelton, ~2.0-2.3 kg) 0.2% cholesterol enriched rabbit chow (Purina #5322) with or without 0.4% MDL compound. Solubilize the MDL compounds in 100% ethanol. Spray the chow with the MDL mixtures and allow to dry overnight in a chemical fume hood. Spray control chow with ethanol. Feed rabbits 100 grams food per day for 7 days (0.6% MDL 103,491 were fed for 14 days); make available water ad libitum. On day 7, bleed (~2 mL) rabbits (fasted overnight) from a marginal ear vein. Euthanize rabbits by carbon dioxide overdose. Record the total body and liver weights in grams. Record food as grams·days^-1 ·rabbits^-1. Use aliquots of fresh serum for clinical chemistries, lipoprotein cholesterol determination, thiobarbituric acid reactive substances (TBARS) and compound and metabolite concentrations in serum. […]
TBARS are a qualitative indication of the oxidation of lipids in a sample. […] Upon incubation with thiobarbituric acid, the absorbance of the aldehydes can be detected at 530-540 nm. […] Measure absorbances at 540 nm using a Biotek model EL311 microplate reader. The nmoles of MDA produced are calculated from a standard curve of 0 to 10 nmoles of MDA prepared from malonaldehyde bis(dimethylacetal). […]

[3] = Animal parameters (food, body weight, liver weight) in cholesterol-fed rabbits; assay type: in vivo, New Zealand White rabbit; settings: 0.4% in diet, 7 days, N = 5
Excerpt: Perform five independent experiments in the following manner. Each study has a control group and 1-5 groups treated with MDL compound (N=5 per group). Feed Female New Zealand White rabbits (Hazelton, ~2.0-2.3 kg) 0.2% cholesterol enriched rabbit chow (Purina #5322) with or without 0.4% MDL compound. Solubilize the MDL compounds in 100% ethanol. Spray the chow with the MDL mixtures and allow to dry overnight in a chemical fume hood. Spray control chow with ethanol. Feed rabbits 100 grams food per day for 7 days (0.6% MDL 103,491 were fed for 14 days); make available water ad libitum. On day 7, bleed (~2 mL) rabbits (fasted overnight) from a marginal ear vein. Euthanize rabbits by carbon dioxide overdose. Record the total body and liver weights in grams. Record food as grams·days^-1 ·rabbits^-1. Use aliquots of fresh serum for clinical chemistries, lipoprotein cholesterol determination, thiobarbituric acid reactive substances (TBARS) and compound and metabolite concentrations in serum. Freeze livers (~5 gram aliquots) at -20° C. for compound and metabolite concentration determination at a later time.

Male Sprague-Dawley Rats = assay: Serum clinical chemistries in male Sprague-Dawley rats; assay type: in vivo
Experimental: Measurement of Antioxidant Activity and Bioavailability of Compounds of Formula (1) By In Vivo Screening in Male Sprague-Dawley Rats
(§1) A typical experiment consists of 4-6 groups of rats (N=5 per group) with 1 group being a control which receives no MDL compound and the other groups being treated with 0.3% MDL compound. […] Mix the MDL compound with approximately 50 grams of food using a mortar and pestle. This is added to the remainder of the food and mixed for 3 hours on a rotary mixer. In the morning of day 5, anesthetize non-fasted rats with carbon dioxide, and collect blood by cardiac puncture. Sacrifice rats by cervical dislocation. Record body weights and liver weights in grams. Record food consumption as grams·day^-1 ·rat^-1. Deaths are recorded as mortality. Use aliquots of fresh serum for clinical chemistries, thiobarbituric acid reactive substances (TBARS) and conjugated diene measurements. Freeze aliquots of serum (~0.5 mL) and whole livers at -20° C. for compound and metabolite concentration determination at a later time.
Allow blood to clot at room temperature for 30 minutes. Obtain serum after centrifugation for 10 min at 4° C. at 3000 rpm in a Beckman J-6M/E centrifuge with a JS-4.2 rotor. […] Calculate ALP, ALT, and AST as units/L. Calculate cholesterol, triglycerides, and glucose as mg/dL.

[4] = system: oxidation of serum lipids; assay: TBARS assay (oxidation of serum lipids) in male Sprague-Dawley rats; assay type: in vivo; settings: feed or water, 96 h, rat serum, 4 days, N = 5, CuSO4-initiated, 3 hr, read-out: TBARS, percent of control
Experimental: as §1
In this assay the oxidation of serum lipids is initiated with CuSO4, resulting in the formation of aldehydes, such as malondialdehyde (MDA). Upon incubation with thiobarbituric acid, the absorbance of the aldehydes can be detected at 530-540 nm. […] Measure TBARS as follows: mix 100 μL of serum with 400 μL of a 5 mmol CuSO4 solution and incubate at 37° C. for 3 hr. Stop the reactions by addition of 1.0 mL of 20% trichloroacetic acid. […] Centrifuge samples briefly to pellet undissolved material, and transfer the supernatants to a 96-well microtiter plate. Measure absorbances at 540 nm using a Biotek model EL311 microplate reader. The nmoles of MDA produced are calculated from a standard curve of 0 to 10 nmoles of MDA prepared from malonaldehyde bis(dimethylacetal). Serum samples from treated rats are compared to serum samples from control rats that received no MDL compound.

[5] = Animal parameters (food, body weight, liver weight, mortality) in male Sprague-Dawley rats; assay type: in vivo; settings: for mortality at 96 h: po, read-out: mortality (deaths per group); for mortality at 96 h / body wt., percent of control: rat
Excerpt: (§2) A typical experiment consists of 4-6 groups of rats (N=5 per group) with 1 group being a control which receives no MDL compound and the other groups being treated with 0.3% MDL compound. Some of the compounds are either repeated at 0.3% or evaluated again at the lower dose of 0.1%. House Male Sprague-Dawley rats, 50-100 g, (Harlan Laboratories, Indianapolis, Ind.) in groups of 5, feeding ad libitum water and Purina Rodent chow (#5002) with or without MDL compound as a dietary admixture for 4 days. Make dietary admixtures (0.3%) by mixing 1.2 grams of an MDL compound with 400 grams of Purina rodent chow (#5002). Mix the MDL compound with approximately 50 grams of food using a mortar and pestle. This is added to the remainder of the food and mixed for 3 hours on a rotary mixer. In the morning of day 5, anesthetize non-fasted rats with carbon dioxide, and collect blood by cardiac puncture. Sacrifice rats by cervical dislocation. Record body weights and liver weights in grams. Record food consumption as grams·day^-1 ·rat^-1. Deaths are recorded as mortality. Use aliquots of fresh serum for clinical chemistries, thiobarbituric acid reactive substances (TBARS) and conjugated diene measurements. Freeze aliquots of serum (~0.5 mL) and whole livers at -20° C. for compound and metabolite concentration determination at a later time.

[6] = HPLC quantitation of compound and metabolite concentration in rat serum and liver; settings: in vivo; for concentration at 96 h: po, 0.3% in diet, 4 days
Excerpt: as §2
Determine serum and liver concentrations of parent compound and the metabolites, bisphenol and diphenoquinone, by reverse phase HPLC using a Waters 990 Powerline system. Homegenize livers (1 gram samples) with 5.0 mL PBS, pH 7.4, using a Polytron tissue homogenizer at setting 5 for 20-30 seconds. Extract serum or liver homogenates as follows: add 100 μL of either serum or homogenate to 2.0 mL diethyl ether:ethanol (3:1) while vortexing the tube. Cap the sample tubes and centrifuge for 10 min at 5° C. at 3500 rpm in a Beckman GPKR centrifuge with a GH 3.7 rotor. Transfer the supernatants to clean tubes and dry under N2. Reconstitute samples with 200 μL of acetonitrile:hexane:0.1 M ammonium acetate (90:6.5:3.5, by vol.). Then, inject 100 μL onto a Waters Deltapak C18-300 Å column, and elute with an 83% acetonitrile:17% water mobile phase at a flow rate of 1.5 mL/min. Record absorbances at the wavelengths of 240, 254, and 420nm. Calculate compound concentrations from known quantities of authentic parent compounds after correction for recovery. […]. Calculate concentrations as μg/mL of serum and μg/g of liver.

oxidation of lipids = assay: Conjugated diene lag phase determination in rat serum; assay type: in vivo, Sprague-Dawley rat; settings: rat pooled serum, 0.3% in diet, 4 days; mean of 2 determinations; not normalized to control
Excerpt: as §2, with “Use aliquots of fresh serum for clinical chemistries, thiobarbituric acid reactive substances (TBARS) and conjugated diene measurements. Freeze aliquots of serum (~0.5 mL) and whole livers at -20° C. for compound and metabolite concentration determination at a later time.” left out
Conjugated diene lag phase is another indicator of the oxidation of lipids. […] Measure the absorbances of all cuvettes and set the instrument baseline to zero using the lowest absorbing sample. […] Record the absorbance of each cuvette at 2 min intervals for a period of 840 min. […]

[7] = rat serum, 0.3% in diet, 4 days, N = 5
[8] = in vivo, 0.3% in diet, 4 days, N = 5
[9] = mean N = 5, read-out: Serum Parent (parent compound concentration)

SMILES | ALP (alkaline phosphatase), percent of control (Male Sprague-Dawley Rats; [7]) | AST (aspartate aminotransferase), percent of control (Male Sprague-Dawley Rats; [7]) | response vs control in vivo at 0.3 % in diet [4] | mortality at 96 h [5, 8] | body wt., percent of control ([5]; 0.3% in diet, 4 days, N = 5) | Liver Bis (bisphenol concentration) ([6]; 5760 min) | Liver Quin (diphenoquinone concentration) ([6]; 5760 min) | Serum Bis (bisphenol concentration) ([6]; 5760 min) | Serum Quin (diphenoquinone concentration) ([6]; 5760 min) | concentration at 96 h [6, 9] | further results
CC(C)=CCC[C@H](C)CCOc1cc(C(C)(C)C)c(O)c(C(C)(C)C)c1 [103,294] | 124% | 88% | 18% | 0% | 101% | 0 | 0 | 0 | 0 | 21700 ng/mL | LDL cholesterol, percent of control [1]: 82%; chol tot. (total cholesterol), percent of control [1]: 94%; TBARS, percent of control [2]: 35%; food (grams eaten per day per rabbit), percent of control [3]: 103%; body wt., percent of control ([3]; rabbit): 100%; lw/bw (liver weight/body weight), percent of control ([3]; rabbit): 105%; GLUC (glucose), percent of control (Male Sprague-Dawley Rats; [7]): 103%; ALT (alanine aminotransferase), percent of control (Male Sprague-Dawley Rats; rat, in vivo): 132%; food (grams eaten per day per rat), percent of control ([5]; 0.3% in diet, 4 days, N = 5): 108%; concentration at 96 h ([6]; mean N = 5, read-out: Liver Parent (parent compound concentration)): 64600 ng/g
CC(C)=CCCC(C)CCOc1ccc(O)c(C(C)(C)C)c1 (centres unmarked) [105,411] | 76% | 87% | 29% | 0% | 101% | 0 | 0 | 0 | 0 | 1100 ng/mL | ALT (alanine aminotransferase), percent of control (Male Sprague-Dawley Rats; [7]): 122%; GLUC (glucose), percent of control (Male Sprague-Dawley Rats; rat, in vivo): 96%; CONJ. DIENE (conjugated diene lag phase) (oxidation of lipids): 400 min; food (grams eaten per day per rat), percent of control ([5]; in vivo): 95%; Liver Parent (parent compound concentration) ([6]; 5760 min): 0
